Reference: ChEMBL document CHEMBL4765331, “Amides of pyrrole- and thiophene-fused anthraquinone derivatives: A role of the heterocyclic core in antitumor properties” (Eur J Med Chem, 2020)
Active and inactive are the calls of the source. The calls are words filed in the database; no cut-off is given here.

Key:
CAPAN-1 = assay: Antiproliferative activity against human CAPAN-1 cells assessed as inhibition of cell proliferation measured after 72 hrs by MTT assay; type: functional, cell-based; conditions: CAPAN-1, 72 h
HCT-116 [1] = assay: Antiproliferative activity against human HCT-116 cells assessed as inhibition of cell proliferation measured after 72 hrs by MTT assay; type: functional, cell-based; conditions: HCT-116, 72 h
NCI-H460 = assay: Antiproliferative activity against human NCI-H460 cells assessed as inhibition of cell proliferation measured after 72 hrs by MTT assay; type: functional, cell-based; conditions: NCI-H460, 72 h
HL-60 = assay: Antiproliferative activity against human HL-60 cells assessed as inhibition of cell proliferation measured after 72 hrs by MTT assay; type: functional, cell-based; conditions: HL-60, 72 h
K562 = assay: Antiproliferative activity against human K562 cells assessed as inhibition of cell proliferation measured after 72 hrs by MTT assay; type: functional, cell-based; conditions: K562, 72 h
TERT-RPE1 = assay: Cytotoxicity against human TERT-RPE1 cells assessed as inhibition of cell proliferation measured after 72 hrs by MTT assay; type: cell-based; conditions: RPE-1, 72 h
[2] = Antiproliferative activity against P-gp-positive/doxorubicin-resistant human K562/4 cells assessed as inhibition of cell proliferation measured after 72 hrs by MTT assay; type: functional; conditions: K562/4, 72 h
[3] = Drug uptake in mouse NIH3T3 cells assessed as compound localization in nucleus at 1 uM measured after 15 mins by laser scanning microscope; type: ADME, subcellular; conditions: nih3t3, 0.25 h
HCT-116 [4] = assay: Antiproliferative activity against human HCT-116 cells with inactivated p53 gene assessed as inhibition of cell proliferation measured after 72 hrs by MTT assay; type: functional, cell-based; conditions: HCT-116, 72 h
[5] = Resistance index, ratio of IC50 for human P-gp-positive/Doxorubicin-resistant K562/4 cells to IC50 for human K562 cells; type: functional
Calf thymus DNA [6] = assay: Binding affinity to calf thymus double stranded DNA at 10 uM measured after 5 mins by flourescence spectroscopy method; conditions: Bos taurus
Calf thymus DNA [7] = assay: Binding affinity to calf thymus DNA assessed as DNA intercalation by measuring decrease of negative DNA band at 245 nm at 50 uM by circular dichroism spectral analysis; type: tissue-based; conditions: Bos taurus
Calf thymus DNA [8] = assay: Binding affinity to calf thymus DNA assessed as binding constant by scatchard plot analysis; conditions: Bos taurus
Calf thymus DNA [9] = assay: Binding affinity to calf thymus DNA assessed as dissociation constant by scatchard plot analysis; design: species or system Bos taurus
Calf thymus DNA [10] = assay: Binding affinity to calf thymus DNA assessed as stoichiometry ratio of compound-DNA complex formation by scatchard plot analysis; conditions: Bos taurus
P388 [11] = assay: Antitumour activity against mouse P388 cells xenografted intraperitoneally in BDF1 mouse assessed as mean life span time at 20 mg/kg, ip administered qd for 5 days (reference value: 11.5 +/-0.9 days); type: functional; conditions: dose 20 mg/kg/day; time 5 day
P388 [12] = assay: Antitumour activity against mouse P388 cells xenografted intraperitoneally in BDF1 mouse assessed as […] T/C ratio at 20 mg/kg, ip administered qd for 5 days (reference value: 100%); type: functional; conditions: dose 20 mg/kg/day; time 5 day

Row | Compound | IC50 (CAPAN-1) | IC50 (HCT-116 [1]) | IC50 (NCI-H460) | IC50 (HL-60) | IC50 (K562) | IC50 (TERT-RPE1) | IC50 [2] | Drug uptake [3] | IC50 (HCT-116 [4]) | Ratio IC50 [5] | Activity (Calf thymus DNA [6]) | Activity (Calf thymus DNA [7]) | Kb (Calf thymus DNA [8]) | Kd (Calf thymus DNA [9]) | Ratio (Calf thymus DNA [10]) | Time (P388 [11]) | T/C (P388 [12])
1 | O=C1c2ccccc2C(=O)c2c1c(O)c1scc(C(=O)NC3CCNCC3)c1c2O | 1200 nM | 1700 nM | 1200 nM | 1600 nM | 1500 nM | 5800 nM |  |  |  |  |  |  |  |  |  |  | 
2 | Cc1[nH]c2c(O)c3c(c(O)c2c1C(=O)N[C@H]1CCNC1)C(=O)c1ccccc1C3=O | 1000 nM | 1800 nM | 5300 nM | 1000 nM | 700 nM | 17100 nM |  |  |  |  |  |  |  |  |  |  | 
3 | Cc1[nH]c2c(O)c3c(c(O)c2c1C(=O)N[C@@H]1CCNC1)C(=O)c1ccccc1C3=O | 1000 nM | 2300 nM | 4400 nM | 1000 nM | 800 nM | 14700 nM |  |  |  |  |  |  |  |  |  |  | 
4 | O=C1c2ccccc2C(=O)c2c1c(O)c1scc(C(=O)N[C@@H]3CCNC3)c1c2O | 2200 nM | 800 nM | 2000 nM | 4600 nM | 500 nM | 15500 nM |  |  |  |  |  |  |  |  |  |  | 
5 | COc1cccc2c1C(=O)c1c(O)c3c(c(O)c1C2=O)C[C@@](O)(C(=O)CO)C[C@@H]3O[C@H]1C[C@H](N)[C@H](O)[C@H](C)O1 [DOXORUBICIN] | 1700 nM |  | 400 nM |  |  | 1000 nM | 5500 nM | Active |  |  |  |  |  |  |  |  | 
6 | Cc1[nH]c2c(O)c3c(c(O)c2c1C(=O)N1CCC(N)CC1)C(=O)c1ccccc1C3=O | 1700 nM | 1400 nM | 2900 nM | 800 nM | 2300 nM | 14200 nM |  |  |  |  |  |  |  |  |  |  | 
7 | NC1CCN(C(=O)c2csc3c(O)c4c(c(O)c23)C(=O)c2ccccc2C4=O)CC1 | 300 nM | 1900 nM | 1700 nM | 900 nM | 2000 nM | 15700 nM |  |  |  |  |  |  |  |  |  |  | 
8 | Cc1[nH]c2c(O)c3c(c(O)c2c1C(=O)N1C[C@@H](N)[C@H](N)C1)C(=O)c1ccccc1C3=O | 8700 nM | 4800 nM | 11400 nM | 3100 nM | 2400 nM | > 20000 nM | > 50000 nM |  | 7000 nM | >20.8 |  |  |  |  |  |  | 
9 | Cc1c(C(=O)N2CC[C@H](N)C2)c2c(O)c3c(c(O)c2n1Cc1ccccc1)C(=O)c1ccccc1C3=O | 1600 nM | 1800 nM | 5400 nM | 1100 nM | 700 nM | 14700 nM | 5500 nM |  | 1800 nM | 7.9 |  |  |  |  |  |  | 
10 | Cc1[nH]c2c(O)c3c(c(O)c2c1C(=O)NC1CCNCC1)C(=O)c1ccccc1C3=O | 300 nM | 1500 nM | 1100 nM | 200 nM | 400 nM | 11800 nM |  |  |  |  |  |  |  |  |  |  | 
11 | Cc1[nH]c2c(O)c3c(c(O)c2c1C(=O)N1CCCC(N)C1)C(=O)c1ccccc1C3=O (configuration not stated) | 1100 nM | 2000 nM | 2600 nM | 200 nM | 400 nM | 16500 nM |  |  |  |  |  |  |  |  |  |  | 
12 | Cc1c(C(=O)N2CC[C@H](N)C2)c2c(O)c3c(c(O)c2n1C)C(=O)c1ccccc1C3=O | 1100 nM | 1800 nM | 16300 nM | 700 nM | 1200 nM | 16100 nM | 25000 nM |  | 3200 nM | 19.2 | Active | Active | 7.5 10^5/M | 1300 nM | 3 |  | 
13 | CC(=O)Cn1c(C)c(C(=O)N2CC[C@H](N)C2)c2c(O)c3c(c(O)c21)C(=O)c1ccccc1C3=O | 13400 nM | 16900 nM | 16400 nM | 3400 nM | 2200 nM | > 20000 nM |  |  |  |  |  |  |  |  |  |  | 
14 | O=C1c2ccccc2C(=O)c2c1c(O)c1scc(C(=O)N[C@H]3CCNC3)c1c2O | 2800 nM | 900 nM | 1400 nM | 3900 nM | 700 nM | 14900 nM |  |  |  |  |  |  |  |  |  |  | 
15 | N[C@@H]1CCN(C(=O)c2csc3c(O)c4c(c(O)c23)C(=O)c2ccccc2C4=O)C1 | 2000 nM | 2000 nM | 800 nM | 4100 nM | 1200 nM | 12600 nM |  |  |  |  |  |  |  |  |  |  | 
16 | N[C@@H]1CN(C(=O)c2csc3c(O)c4c(c(O)c23)C(=O)c2ccccc2C4=O)C[C@H]1N | 2600 nM | 4000 nM | 12700 nM | 4700 nM | 1300 nM | 9100 nM | 14500 nM |  | 3800 nM | 11.2 |  |  |  |  |  |  | 
17 | O=C1c2ccccc2C(=O)c2c1c(O)c1scc(C(=O)NC3CCCNC3)c1c2O (racemic) | 1200 nM | 3200 nM | 2700 nM | 2600 nM | 6800 nM | 6800 nM |  |  |  |  |  |  |  |  |  |  | 
18 | CCCn1c(C)c(C(=O)N2CC[C@H](N)C2)c2c(O)c3c(c(O)c21)C(=O)c1ccccc1C3=O | 4500 nM | 2200 nM | 14300 nM | 1300 nM | 1200 nM | 17100 nM | 7000 nM |  | 2000 nM | 5.8 |  |  |  |  |  |  | 
19 | CCn1c(C)c(C(=O)N2CC[C@H](N)C2)c2c(O)c3c(c(O)c21)C(=O)c1ccccc1C3=O | 1200 nM | 2300 nM | 2100 nM | 1100 nM | 1700 nM | 13600 nM | 28000 nM |  | 2500 nM | 16.5 |  |  |  |  |  |  | 
20 | Cc1[nH]c2c(O)c3c(c(O)c2c1C(=O)NC1CCCNC1)C(=O)c1ccccc1C3=O (configuration not stated) | 400 nM | 1000 nM | 1000 nM | 1800 nM | 3200 nM | 12500 nM |  |  |  |  |  |  |  |  |  |  | 
21 | Cc1[nH]c2c(O)c3c(c(O)c2c1C(=O)N1CC[C@@H](N)C1)C(=O)c1ccccc1C3=O | 500 nM | 1500 nM | 500 nM | 200 nM | 300 nM | 15900 nM |  |  |  |  |  |  |  |  |  | 17.3 days | 150%
22 | Cc1c(C(=O)N2CC[C@H](N)C2)c2c(O)c3c(c(O)c2n1CC(=O)O)C(=O)c1ccccc1C3=O | 14300 nM | 17100 nM | 20000 nM | 13300 nM | 13400 nM | > 20000 nM |  |  |  |  |  |  |  |  |  |  | 
23 | NC1CCCN(C(=O)c2csc3c(O)c4c(c(O)c23)C(=O)c2ccccc2C4=O)C1 (racemic) | 1100 nM | 800 nM | 4300 nM | 3000 nM | 1300 nM | 7900 nM |  |  |  |  |  |  |  |  |  |  | 
